In patent publication US20230159496A1, “COMPOUNDS AND METHODS FOR MODULATING SPLICING” (REMIX THERAPEUTICS INC., priority 2020, published 2023):
Read-outs that look alike come from different tables or passages of the source.

Tests used:
Format in all cases: cell-based
HTT mRNA = assay: Splicing assay (RT-qPCR) monitoring HTT canonical junction (CJ) and alternative junction (AJ) mRNA isoforms; details: A673 or K562 cells, 24 h treatment, top dose 10 uM
Procedure, shortened: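 A673 or K562 cells treated 24 h at 37 °C with an 11-point 3-fold dilution (top 10 uM final, DMSO ≤0.25%). Lysates assayed by one-step RT-qPCR for HTT CJ and AJ isoforms, normalized to GAPDH, GUSB (K562) or PPIA (A673).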

HTT CJ mRNA = assay: Gene panel canonical junction qPCR assay, HTT; details: decrease in CJ mRNA levels, gene panel; read-out: HTT IC50
Procedure, shortened: (§1)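 A673 or K562 cells were treated for 24 h at 37 °C with an 11-point 3-fold dilution, top dose 10 uM, DMSO ≤0.25%. Canonical junction mRNA in lysates was quantified by one-step RT-qPCR and normalized to GAPDH, GUSB or PPIA.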

SMN2 CJ mRNA = assay: Gene panel canonical junction qPCR assay, SMN2; details: decrease in CJ mRNA levels, gene panel; read-out: SMN2 IC50
Procedure, shortened: as §1

Target C CJ mRNA = assay: Gene panel canonical junction qPCR assay, Target C; details: decrease in CJ mRNA levels, gene panel; read-out: Target C IC50
Procedure, shortened: as §1

[1] = decrease in CJ mRNA (50% response), read-out: HTT CJ AC50
[2] = increase in AJ mRNA (50% response), read-out: HTT AJ AC50

| Structure (SMILES) | AC50 (HTT mRNA; [1]) [nM] | AC50 (HTT mRNA; [2]) [nM] | IC50 (HTT CJ mRNA) [nM] | IC50 (SMN2 CJ mRNA) [nM] | IC50 (Target C CJ mRNA) [nM] |
| --- | --- | --- | --- | --- | --- |
| Cc1cn2nc(-c3ccc4c(=O)n(C5CCNCC5)cnc4c3)nc2c(C)n1 [Compound 287, 7-{6,8-dimethyl-[1,2,4]triazolo[1,5-a]pyrazin-2-yl}-3-(piperidin-4-yl)quinazolin-4-one] | 100 to 1000 | 100 to 1000 | 100 to 1000 | < 100 | 100 to 1000 |
| Cc1cn2cc(-c3ccc4c(=O)n(C5CCNCC5)cnc4c3F)cc(F)c2n1 [Compound 210, 8-fluoro-7-(8-fluoro-2-methylimidazo[1,2-a]pyridin-6-yl)-3-(piperidin-4-yl)quinazolin-4(3H)-one] | 1000 to 10000 | 1000 to 10000 | 1000 to 10000 | 100 to 1000 | 1000 to 10000 |
| CN1CCC(n2cnc3cc(-c4cc(F)c5nn(C)cc5c4)ccc3c2=O)CC1 [Compound 209, 7-(7-fluoro-2-methyl-2H-indazol-5-yl)-3-(1-methylpiperidin-4-yl)quinazolin-4(3H)-one] | 1000 to 10000 | 100 to 1000 | 1000 to 10000 | < 100 | 1000 to 10000 |
| Cc1cn2cc(-c3ccc4nc(N5CCNC6(CC6)C5)[nH]c(=O)c4c3)cc(F)c2n1 [Compound 191, 6-(8-fluoro-2-methylimidazo[1,2-a]pyridin-6-yl)-2-(4,7-diazaspiro[2.5]octan-7-yl)quinazolin-4(3H)-one] | > 10000 | > 10000 | > 10000 | > 10000 | > 10000 |
| Cc1cn2nc(-c3ccc4nc(NC5CCNCC5)[nH]c(=O)c4c3)cc(C)c2n1 [Compound 192, 6-(2,8-dimethylimidazo[1,2-b]pyridazin-6-yl)-2-(piperidin-4-ylamino)quinazolin-4(3H)-one] | > 10000 | > 10000 | > 10000 | > 10000 | > 10000 |
| Cn1cc2ccc(-c3ccc4c(=O)n(C5CCNCC5)ncc4c3)cc2n1 [Compound 263] | > 10000 | > 10000 | > 10000 | > 10000 | > 10000 |
| Cc1cn2cc(-c3ccc4c(=O)n(C5CCNC6(CC6)C5)cnc4c3)cc(F)c2n1 (centres unmarked) [Compound 236, 7-(8-fluoro-2-methylimidazo[1,2-a]pyridin-6-yl)-3-(4-azaspiro[2.5]octan-7-yl)quinazolin-4(3H)-one] | 100 to 1000 | 100 to 1000 | 100 to 1000 | < 100 | 100 to 1000 |
| Cc1cn2cc(-c3ccc4c(=O)n(C5CCNCC5)cnc4c3)cc(F)c2n1 [Compound 205, 7-(8-fluoro-2-methylimidazo[1,2-a]pyridin-6-yl)-3-(piperidin-4-yl)quinazolin-4(3H)-one] | 100 to 1000 | 100 to 1000 | 100 to 1000 | < 100 | 100 to 1000 |
| Cc1nc2c(F)cc(-c3ccc4c(=O)n(C5CCN(C)CC5)cnc4c3)cc2s1 [Compound 301] | 1000 to 10000 | 1000 to 10000 | 1000 to 10000 | 1000 to 10000 | 1000 to 10000 |
| Cc1cn2nc(-c3ccc4c(=O)n([C@@H]5CCN[C@H](C)C5)ncc4c3)cc(C)c2n1 [Compound 272] | < 100 | 100 to 1000 | < 100 | < 100 | 100 to 1000 |
| CCN1CCC(n2ncc3cc(-c4cc(C)c5nc(C)cn5n4)ccc3c2=O)CC1 [Compound 266] | < 100 | < 100 | < 100 | < 100 | 100 to 1000 |
| CN1CCC(n2cnc3cc(-c4ccc5nn(C)cc5c4)ccc3c2=O)CC1 [Compound 208, 7-(2-methyl-2H-indazol-5-yl)-3-(1-methylpiperidin-4-yl)quinazolin-4(3H)-one] | > 10000 | 1000 to 10000 | > 10000 | 100 to 1000 | > 10000 |
| Cc1cn2nc(-c3ccc4c(=O)n(C5CCNCC5)cnc4c3)cc(C)c2n1 [Compound 181] | 100 to 1000 | 100 to 1000 | 100 to 1000 | < 100 | 100 to 1000 |
| Cc1cn2nc(-c3ccc4c(=O)n(C5CCNCC5)ncc4c3)nc2c(C)n1 [Compound 259] | 100 to 1000 | 100 to 1000 | 100 to 1000 | 100 to 1000 | 100 to 1000 |
| Cc1cn2nc(-c3ccc4c(=O)n(C5CCCNCC5)ncc4c3)cc(C)c2n1 (centres unmarked) [Compound 283, 2-(azepan-4-yl)-6-{2,8-dimethylimidazo[1,2-b]pyridazin-6-yl}phthalazin-1-one] | 100 to 1000 | 100 to 1000 | 100 to 1000 | < 100 | 100 to 1000 |
| Cc1cn2cc(-c3ccc4c(c3)CCN(C3CCNCC3)C4=O)cc(F)c2n1 [Compound 247, 6-[8-fluoro-2-methylimidazo[1,2-a]pyridin-6-yl]-2-(piperidin-4-yl)-3,4-dihydroisoquinolin-1-one] | 1000 to 10000 | 1000 to 10000 | 1000 to 10000 | < 100 | 1000 to 10000 |
